For 28 molecules, IC50 results are on record in patent US11066396B2 (priority 2016, dated 2021).

As a reminder, the IC50 is the concentration needed to halve the response being measured.

The target of one assay is HDAC8 (Homo sapiens (Human), UniProt Q9BY41). The conditions noted are these: read-out: HDAC8 IC50.
The target in another assay is HDAC1 (Homo sapiens (Human), UniProt Q13547). The conditions noted are these: read-out: HDAC1 IC50.
HDAC1, sequence (Q13547 whole entry): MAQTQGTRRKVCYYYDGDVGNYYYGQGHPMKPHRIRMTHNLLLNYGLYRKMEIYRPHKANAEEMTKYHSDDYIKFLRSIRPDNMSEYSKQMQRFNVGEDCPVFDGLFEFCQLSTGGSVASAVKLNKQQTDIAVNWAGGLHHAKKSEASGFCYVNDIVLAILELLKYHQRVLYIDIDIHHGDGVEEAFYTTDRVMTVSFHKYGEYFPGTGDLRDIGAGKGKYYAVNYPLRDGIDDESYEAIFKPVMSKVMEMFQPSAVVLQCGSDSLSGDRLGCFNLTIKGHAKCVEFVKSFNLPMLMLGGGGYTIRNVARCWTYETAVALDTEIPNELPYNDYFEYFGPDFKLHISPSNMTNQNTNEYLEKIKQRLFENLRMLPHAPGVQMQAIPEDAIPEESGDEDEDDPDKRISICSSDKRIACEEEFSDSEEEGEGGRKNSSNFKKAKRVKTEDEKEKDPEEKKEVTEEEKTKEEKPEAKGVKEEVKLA

HDAC8, sequence (Q9BY41 whole entry): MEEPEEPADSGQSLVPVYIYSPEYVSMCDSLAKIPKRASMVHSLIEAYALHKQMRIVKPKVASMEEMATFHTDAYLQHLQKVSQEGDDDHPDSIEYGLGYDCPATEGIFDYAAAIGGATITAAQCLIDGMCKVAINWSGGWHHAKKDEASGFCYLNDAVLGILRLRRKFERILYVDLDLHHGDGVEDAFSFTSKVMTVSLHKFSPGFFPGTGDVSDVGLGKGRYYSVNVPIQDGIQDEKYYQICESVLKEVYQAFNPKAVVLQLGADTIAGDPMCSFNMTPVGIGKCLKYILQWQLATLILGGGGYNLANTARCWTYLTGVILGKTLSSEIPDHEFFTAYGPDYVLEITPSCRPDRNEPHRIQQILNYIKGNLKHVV

`O=C(C1CC1c1cncnc1)N(Cc1ccc(-c2noc(C(F)(F)F)n2)cc1)c1cccc(C(F)(F)F)c1` (racemic) [Example 73, 2-(pyrimidin-5-yl)-N-(4-(5-(trifluoromethyl)-1,2,4-oxadiazol-3-yl)benzyl)-N-(3-(trifluoromethyl)phenyl)cyclopropane-1-carboxamide]: the results for the IC50 on HDAC8 and on HDAC1 were 2.2 µM and 0.94 µM, respectively.

`CC(Cn1cncn1)C(=O)N(Cc1ccc(-c2noc(C(F)(F)F)n2)cc1)c1cccc(C(F)(F)F)c1` (racemic) [Example 79, 2-methyl-3-(1H-1,2,4-triazol-1-yl)-N-(4-(5-(trifluoromethyl)-1,2,4-oxadiazol-3-yl)benzyl)-N-(3-(trifluoromethyl)phenyl)propanamide]: the IC50 at HDAC8 amounted to 3.4 µM; on HDAC1, 1.3 µM.

As for `O=C(CC1CNCCO1)N(Cc1ccc(-c2noc(C(F)(F)F)n2)cc1)c1cccc(C(F)(F)F)c1` (racemic) [Example 82, 2-(morpholin-2-yl)-N-(4-(5-(trifluoromethyl)-1,2,4-oxadiazol-3-yl)benzyl)-N-(3-(trifluoromethyl)phenyl)acetamide], the IC50 at HDAC8 was determined as 2.5 µM; at HDAC1, 0.86 µM.

Regarding `O=C(C1COCCO1)N(Cc1ccc(-c2noc(C(F)(F)F)n2)cc1)c1cccc(C(F)(F)F)c1` (racemic) [Example 84, N-(4-(5-(trifluoromethyl)-1,2,4-oxadiazol-3-yl)benzyl)-N-(3-(trifluoromethyl)phenyl)-1,4-dioxane-2-carboxamide], the IC50 came out at 2.4 µM on HDAC8 and 0.95 µM at HDAC1.

For the molecule `O=C(CC1COCCO1)N(Cc1ccc(-c2noc(C(F)(F)F)n2)cc1)c1cccc(C(F)(F)F)c1` (racemic) [Example 95, 2-(1,4-dioxan-2-yl)-N-(4-(5-(trifluoromethyl)-1,2,4-oxadiazol-3-yl)benzyl)-N-(3-(trifluoromethyl)phenyl)acetamide], the IC50 on HDAC8 came to 2 µM; on HDAC1, 1.3 µM.

For the molecule `O=C1CCC(c2cccc(Cl)c2)N1c1ccc(-c2noc(C(F)(F)F)n2)cc1F` (racemic) [Example 116, 5-(3-chlorophenyl)-1-(2-fluoro-4-(5-(trifluoromethyl)-1,2,4-oxadiazol-3-yl)phenyl)pyrrolidin-2-one], the IC50 on HDAC8 was 14 µM; on HDAC1, 1.6 µM.

Consider `Fc1ccccc1C1COCCN1c1ccc(-c2noc(C(F)(F)F)n2)cn1` (racemic) [Example 135, 3-(2-fluorophenyl)-4-(5-(5-(trifluoromethyl)-1,2,4-oxadiazol-3-yl)pyridin-2-yl)morpholine], for which the figures for the 50% inhibitory concentration (IC50) at HDAC8 and at HDAC1 were 1.3 µM and 0.21 µM, respectively.

As for `Fc1cccc(C2COCCN2c2ccc(-c3noc(C(F)(F)F)n3)cn2)c1` (racemic) [Example 137, 3-(3-fluorophenyl)-4-(5-(5-(trifluoromethyl)-1,2,4-oxadiazol-3-yl)pyridin-2-yl)morpholine], the values for the IC50 on HDAC8 and on HDAC1 were 2.3 µM and 0.44 µM, respectively.

`Fc1ccc(C2COCCN2c2ccc(-c3noc(C(F)(F)F)n3)cn2)cc1` (racemic) [Example 142, 3-(4-fluorophenyl)-4-(5-(5-(trifluoromethyl)-1,2,4-oxadiazol-3-yl)pyridin-2-yl)morpholine]: the results for the IC50 at HDAC8 and on HDAC1 were 1.9 µM and 0.5 µM, respectively.

Take `CC(C)(C)OC(=O)N1CC(=O)N(c2ccc(-c3noc(C(F)(F)F)n3)cc2)[C@H](c2ccccc2)C1` (racemic) [Example 163, tert-butyl 3-oxo-5-phenyl-4-(4-(5-(trifluoromethyl)-1,2,4-oxadiazol-3-yl)phenyl)piperazine-1-carboxylate]: the IC50 on HDAC8 came out at 4.3 µM; on HDAC1, 1.7 µM.

Consider `FC(F)(F)c1nc(-c2ccnc(OC3CCCc4ccc(Cl)nc43)c2)no1` (racemic) [Example 226, 2-chloro-8-({4-[5-(trifluoromethyl)-1,2,4-oxadiazol-3-yl]pyridin-2-yl}oxy)-5,6,7,8-tetrahydroquinoline], for which the 50% inhibitory concentration (IC50) at HDAC8 worked out at 0.85 µM; at HDAC1 it was 1.1 µM.

For the molecule `CC1(C)CC(c2ccccc2)N(c2ccc(-c3noc(C(F)(F)F)n3)cc2F)C1=O` (racemic) [Example 312, 1-{2-fluoro-4-[5-(trifluoromethyl)-1,2,4-oxadiazol-3-yl]phenyl}-3,3-dimethyl-5-phenylpyrrolidin-2-one], the IC50 at HDAC8 stood at 45 µM; at HDAC1, 1.4 µM.

With `O=C1CCC(c2c(F)cccc2F)N1c1ccc(-c2noc(C(F)(F)F)n2)cc1F` (racemic) [Example 314, 5-(2,6-difluorophenyl)-1-{2-fluoro-4-[5-(trifluoromethyl)-1,2,4-oxadiazol-3-yl]phenyl}pyrrolidin-2-one], the concentration for half-maximal inhibition (IC50) is 6.5 µM at HDAC8 and 11 µM on HDAC1.

As to `COc1ccccc1C1CCC(=O)N1c1ccc(-c2noc(C(F)(F)F)n2)cc1F` (racemic) [Example 315, 1-{2-fluoro-4-[5-(trifluoromethyl)-1,2,4-oxadiazol-3-yl]phenyl}-5-(2-methoxyphenyl)pyrrolidin-2-one], the IC50 was 8 µM at HDAC8 and 2.1 µM on HDAC1.

As to `O=C1CCC(c2ccc(-c3noc(C(F)(F)F)n3)cc2)N1c1ccccc1F` (racemic) [Example 320, 1-(2-fluorophenyl)-5-{4-[5-(trifluoromethyl)-1,2,4-oxadiazol-3-yl]phenyl}pyrrolidin-2-one], the IC50 on HDAC8 came out at 12 µM; on HDAC1 it was 0.88 µM.

For the molecule `CC1(Cc2ccc(-c3noc(C(F)(F)F)n3)cc2)C(=O)Nc2ccc(F)cc21` (racemic) [Example 346, 5-fluoro-3-methyl-3-{4-[5-(trifluoromethyl)-1,2,4-oxadiazol-3-yl]benzyl}-1,3-dihydro-2H-indol-2-one], the IC50 on HDAC8 turned out to be 15 µM; at HDAC1, 1.2 µM.

With `Cc1nc2c(c(=O)[nH]1)CC(NCc1ccc(-c3noc(C(F)(F)F)n3)cc1)CC2` (racemic) [Example 350, 2-methyl-6-[({4-[5-(trifluoromethyl)-1,2,4-oxadiazol-3-yl]phenyl}methyl)amino]-5,6,7,8-tetrahydroquinazolin-4(3H)-one], the IC50 on HDAC8 turned out to be 0.25 µM; at HDAC1, 1.2 µM.

Turning to `FC(F)(F)c1nc(-c2ccc(CNC3CCc4ncccc4C3)cc2)no1` (racemic) [Example 351, N-({4-[5-(trifluoromethyl)-1,2,4-oxadiazol-3-yl]phenyl}methyl)-5,6,7,8-tetrahydroquinolin-6-amine], the IC50 at HDAC8 worked out at 0.68 µM; on HDAC1 it was 0.52 µM.

For `FC(F)(F)c1nc(-c2ccc(CNC3CCc4[nH]nc(C(F)(F)F)c4C3)cc2)no1` (racemic) [Example 353, 3-(trifluoromethyl)-N-({4-[5-(trifluoromethyl)-1,2,4-oxadiazol-3-yl]phenyl}methyl)-4,5,6,7-tetrahydro-1H-indazol-5-amine], the IC50 at HDAC8 was determined as 0.9 µM; on HDAC1 it was 0.41 µM.

For the molecule `FC(F)(F)c1nc(-c2ccc(CNC3CCN(c4ncccn4)C3)cc2)no1` (racemic) [Example 354, 1-(pyrimidin-2-yl)-N-({4-[5-(trifluoromethyl)-1,2,4-oxadiazol-3-yl]phenyl}methyl)pyrrolidin-3-amine], the 50% inhibitory concentration (IC50) on HDAC8 stood at 0.68 µM; on HDAC1, 1.6 µM.

For `FC(F)(F)c1nc(-c2ccc(CNC3CCc4ncccc4C3)nc2)no1` (racemic) [Example 371, N-({5-[5-(trifluoromethyl)-1,2,4-oxadiazol-3-yl]pyridin-2-yl}methyl)-5,6,7,8-tetrahydroquinolin-6-amine], the IC50 was found to be 1.6 µM on HDAC8 and 0.45 µM on HDAC1.

In the case of `Cc1n[nH]c2c1CC(NCc1ccc(-c3noc(C(F)(F)F)n3)cn1)CC2` (racemic) [Example 372, 3-methyl-N-({5-[5-(trifluoromethyl)-1,2,4-oxadiazol-3-yl]pyridin-2-yl}methyl)-4,5,6,7-tetrahydro-1H-indazol-5-amine], the figures for the IC50 on HDAC8 and at HDAC1 were 2.9 µM and 0.4 µM, respectively.

In the case of `O=C1NCCc2ccccc2C1NCc1ccc(-c2noc(C(F)(F)F)n2)cn1` (racemic) [Example 373, 1-[({5-[5-(trifluoromethyl)-1,2,4-oxadiazol-3-yl]pyridin-2-yl}methyl)amino]-1,3,4,5-tetrahydro-2H-3-benzazepin-2-one], the results for the IC50 at HDAC8 and on HDAC1 were 2.8 µM and 1.3 µM, respectively.

Consider `O=C1CCC(NCc2ccc(-c3noc(C(F)(F)F)n3)cn2)c2ccccc2N1` (racemic) [Example 374, 5-[({5-[5-(trifluoromethyl)-1,2,4-oxadiazol-3-yl]pyridin-2-yl}methyl)amino]-1,3,4,5-tetrahydro-2H-1-benzazepin-2-one], for which the figures for the IC50 at HDAC8 and on HDAC1 were 6.9 µM and 3.2 µM, respectively.

Take `O=C1Nc2ccccc2CC1NCc1ccc(-c2noc(C(F)(F)F)n2)cn1` (racemic) [Example 375, 3-[({5-[5-(trifluoromethyl)-1,2,4-oxadiazol-3-yl]pyridin-2-yl}methyl)amino]-3,4-dihydroquinolin-2(1H)-one]: the IC50 turned out to be 2.6 µM on HDAC8 and 1 µM at HDAC1.

Turning to `O=C1NCCCCC1NCc1ccc(-c2noc(C(F)(F)F)n2)cn1` (racemic) [Example 377, 3-[({5-[5-(trifluoromethyl)-1,2,4-oxadiazol-3-yl]pyridin-2-yl}methyl)amino]azepan-2-one], the 50% inhibitory concentration (IC50) at HDAC8 came out at 3.3 µM; on HDAC1 it was 7.3 µM.

For the molecule `O=C1CCC(NCc2ccc(-c3noc(C(F)(F)F)n3)cn2)c2ccccc2N1` (racemic) [Example 381, 5-[({5-[5-(trifluoromethyl)-1,2,4-oxadiazol-3-yl]pyridin-2-yl}methyl)amino]-1,3,4,5-tetrahydro-2H-1-benzazepin-2-one], the IC50 turned out to be 3.9 µM on HDAC8 and 0.52 µM on HDAC1.

`CC(C(=O)N(Cc1ccc(-c2noc(C(F)(F)F)n2)cn1)c1cccc(F)c1)n1cccn1` (racemic) [Example 389, N-(3-fluorophenyl)-2-(1H-pyrazol-1-yl)-N-({5-[5-(trifluoromethyl)-1,2,4-oxadiazol-3-yl]pyridin-2-yl}methyl)propanamide]: the IC50 came to 1.6 µM at HDAC8 and 0.3 µM on HDAC1.
